Data: patent US20130136714A1, “FUNCTIONALIZED POLYMER NANOPARTICLES AND THE PHARMACEUTICAL USE THEREOF” (KAOHSIUNG MEDICAL UNIVERSITY, priority 2011, published 2013)
Converted amounts (≈) assume the structure as drawn.

Key:
[1] = drug release of EPI micelles by dialysis in PBS buffer; format: physicochemical; details: pH = 7.4, 6.4 and 5.6
Protocol: […] The outside PBS buffer is collected at different time points and then the fresh 30 mL PBS buffer is replaced. The drug concentration is measured and calculated based on a calibration curve generated in PBS buffer with the same pH value.

KB cells = experiment: cytotoxic test (IC50) for the EPI-loaded micelles (MTT); format: cell-based; details: Homo sapiens
Protocol: The results of the cytotoxic test for the drug-loaded micelle are presented as the half maximal inhibitory concentration, i.e. IC50, which is used to examine the biological or biochemical inhibitory effect of a compound. Thus, the IC50 represents the concentration of the drug-loaded micelle required to inhibit the growth of a half of the cancer cells.
5×10^3 cells/well KB cells are incubated in 100 μL of RPMI 1640 medium, and transferred into the 96-well plate for incubating 24 hrs.
Epirubicin.HCl and drug-loaded micelle is prepared at 20 μg/mL, in RPMI 1640 medium. After a serial of dilution, 100 μL/well of each concentration (20, 10, 5, 2.5, 1.25, 1 and 0.5 μg/mL) is added into the cultured plate for 24 hrs incubation.
After 24 hrs incubation, the medium containing the drug and the micelle is removed, and the plate is washed with 100 μL/well PBS buffer at pH=7.4 and further incubated in 100 μL/well fresh medium for 24 and 48 hrs.
The plate is added with 50 μL/well (2 mg/mL) MTT and placed in the incubator for 3 hrs. […] Then, the cell viability is calculated using the ELISA reader.

KB cell line = experiment: intracellular delivery by confocal laser scanning microscope; format: cell-based, human; details: 0.625 μg/mL, cells incubated for 1 h
Protocol: Human oral cancer cell line (KB cell line) is used to investigate the cell viability of the carrier and the drug-loaded micelle, and the expression of the drug-loaded micelle through the endocytosis is observed using a confocal laser scanning microscope (CLSM). The 4′,6-diamidino-2-phenylindole (DAPI) and the lysosomal probe (Lyso-Traker) are used for cell core staining and the lysosome staining, respectively. The drug at the concentration of 0.625 μg/mL is added according to the cell viability for the drug-loaded micelle. The KB cell line is cultured for 0.5, 1, 3, and 24 hrs, in which the blue parts are shown by the DAPI staining at the cell core; the red is the fluorescence of the EPI; the green is the fluorescence of the Lyso-Traker, and the purple is the overlap of EPI and DAPI and the yellow is the overlap of Lyso-Traker and EPI. The amounts of EPI entering the nuclei and the lysosomes (the purple and the yellow images) increase with the increase in the incubation time.
Intracellular delivery is observed using the confocal microscope. 18 mm cover slip is immersed in 0.1N HCl solution for one day and washed to remove the impurities on the slide. After being rinsed by the ddH2O, the slide is wiped and then immersed in 75% alcohol. […]

[2] = target: folic acid receptors (FAR); details: read-out: dissociation constant (kd); cited from earlier work

drug release rate (in words) [1]	SMILES	IC50 (KB cells; incubating time 24 hr)	IC50 (KB cells; incubating time 48 hr)	intracellular location of EPI fluorescence (KB cell line)	Kd [2]
quickly released in a short time	COc1cccc2c1C(=O)c1c(O)c3c(c(O)c1C2=O)C[C@@](O)(C(=O)CO)C[C@@H]3O[C@H]1C[C@H](N)[C@@H](O)[C@H](C)O1 [EPI, Epirubicin]	0.35 µg/mL (≈ 0.644 µM)	0.2 µg/mL (≈ 0.368 µM)	observed in the cell nuclei rather than in cytoplasm	–
–	Nc1nc2ncc(CNc3ccc(C(=O)N[C@@H](CCC(=O)O)C(=O)O)cc3)nc2c(=O)[nH]1 [folic acid]	–	–	–	0.1 nM
